This is an account of results in US12384770B2, “Heterocyclic compound” (Takeda Pharmaceutical Company Limited, priority 2019, dated 2025).

Molecules are shown by their SMILES. “Also recorded” adds a separate entry of the source.

For assay [1], the system named is acetylated tubulin in mouse brain. Put plainly: Increase in acetylated tubulin in brain (hippocampus, ELISA). It counts as in vivo. The conditions noted are these: male C57BL/6J mouse, oral, 4 h after administration. From the text:
A drug was suspended in 0.5% methyl cellulose to prepare a suspension for administration, having a concentration shown in Table 3. The suspension was orally administered into 8 to 10-week old male C57BL/6J mouse, and after the passage of the time shown in Table 3, the brain was taken out, and hippocampus was obtained. The hippocampus was homogenized under RIPA extract (FUJIFILM Wako Pure Chemical Corporation) to which protease inhibitor (Thermo Fisher Scientific) and phosphatase inhibitor (Thermo Fisher Scientific) were added, and centrifuged in 15,000 g for 15 min to prepare a protein extract. The acetylated tubulin and total tubulin in the extract were detected by the following ELISA method. Tubulin antibody (Sigma) was immobilized on 96-well plate (Microlite2+, Thermo Fisher Scientific), and the plate was stored at 4° C. Next day, the plate was washed four times with PBS-T, and blocking buffer (1% BSA/PBS-T) was added thereto, and the reaction was carried out at 37° C. for 2 hr. The plate was washed four times with PBS-T, and the above-mentioned protein extract was added thereto to capture the tubulin on the antibody. The plate was stored at 37° C. for 2 hr, and washed four times with PBS-T. Anti-acetylated tubulin antibody or total tubulin antibody (Cell Signaling Technology), each diluted with blocking buffer, was added thereto, and the reaction was carried out at 37° C. for 1 hr. […] The plate was washed, HRP substrate was added thereto, and the luminescence was measured using a plate reader. The acetylated tubulin and total tubulin were quantified from logistics curve based on dilution series using the mouse hippocampus tissue extract, and the amount of the acetylated tubulin relative to the total tubulin was calculated, and evaluated as an relative tubulin acetylation level. […] After F test for vehicle group and drug group, the significant difference between the two groups was analyzed by Student t-test or Welch test (indicated as *p<0.05, **p<0.01, n.s.: not significant). […]
A general note: An ELISA detects its analyte on a solid surface through an enzyme-linked reagent.

Assay [2] deals with P301S mutant human tau (4R1N) Tg mouse. Briefly: Cognitive improvement action in neurodegenerative disease model mouse (novel object recognition test). The conditions noted are these: once a day for three months. Format: in vivo. As for the experimental part: A drug was suspended in 0.5% methyl cellulose to prepare a suspension for administration. The suspension was repeatedly administered into six month-old male P301S mutant human tau (4R1N) Tg mouse once a day for three months, and novel object recognition test was performed by the following method. The test is comprised of memory acquisition trial of object on the first day, and memory retention trial of familiar object and novel object on the second day. Drug was administered into the mouse 1 hr before the trials on both days. For acquisition trial, The mouse was put in a test box (30 cm×30 cm×25 cm) in which two identical objects were placed, and contact frequency and contact duration with the objects for 5 min were measured under 50 lux. Herein, the contact means a behavior getting a sniff of an object (Sniffing). Next day, one of the objects was replaced with new object, and contact frequency and contact duration with each object for 5 min were measured. Novelty discrimination index (NDI) as an index of cognitive function was calculated by novel object […]/(novel object contact duration+familiar object contact duration) %. […] After F test for vehicle administration wild-type group and vehicle administration Tg group, the significant difference between the two groups was analyzed by Student t-test or Welch test (indicated as **p<0.01). […]

Another assay concerns the target T1, HDAC6 enzyme (Homo sapiens, UniProt Q9UBN7).
T1 construct: HDAC6 enzyme prepared by transducing full length HDAC6 gene into Sf-9 insect cells; GST; purchased SignalChem; host or cells: Sf-9 insect cells
T1 sequence (Q9UBN7 1-1215): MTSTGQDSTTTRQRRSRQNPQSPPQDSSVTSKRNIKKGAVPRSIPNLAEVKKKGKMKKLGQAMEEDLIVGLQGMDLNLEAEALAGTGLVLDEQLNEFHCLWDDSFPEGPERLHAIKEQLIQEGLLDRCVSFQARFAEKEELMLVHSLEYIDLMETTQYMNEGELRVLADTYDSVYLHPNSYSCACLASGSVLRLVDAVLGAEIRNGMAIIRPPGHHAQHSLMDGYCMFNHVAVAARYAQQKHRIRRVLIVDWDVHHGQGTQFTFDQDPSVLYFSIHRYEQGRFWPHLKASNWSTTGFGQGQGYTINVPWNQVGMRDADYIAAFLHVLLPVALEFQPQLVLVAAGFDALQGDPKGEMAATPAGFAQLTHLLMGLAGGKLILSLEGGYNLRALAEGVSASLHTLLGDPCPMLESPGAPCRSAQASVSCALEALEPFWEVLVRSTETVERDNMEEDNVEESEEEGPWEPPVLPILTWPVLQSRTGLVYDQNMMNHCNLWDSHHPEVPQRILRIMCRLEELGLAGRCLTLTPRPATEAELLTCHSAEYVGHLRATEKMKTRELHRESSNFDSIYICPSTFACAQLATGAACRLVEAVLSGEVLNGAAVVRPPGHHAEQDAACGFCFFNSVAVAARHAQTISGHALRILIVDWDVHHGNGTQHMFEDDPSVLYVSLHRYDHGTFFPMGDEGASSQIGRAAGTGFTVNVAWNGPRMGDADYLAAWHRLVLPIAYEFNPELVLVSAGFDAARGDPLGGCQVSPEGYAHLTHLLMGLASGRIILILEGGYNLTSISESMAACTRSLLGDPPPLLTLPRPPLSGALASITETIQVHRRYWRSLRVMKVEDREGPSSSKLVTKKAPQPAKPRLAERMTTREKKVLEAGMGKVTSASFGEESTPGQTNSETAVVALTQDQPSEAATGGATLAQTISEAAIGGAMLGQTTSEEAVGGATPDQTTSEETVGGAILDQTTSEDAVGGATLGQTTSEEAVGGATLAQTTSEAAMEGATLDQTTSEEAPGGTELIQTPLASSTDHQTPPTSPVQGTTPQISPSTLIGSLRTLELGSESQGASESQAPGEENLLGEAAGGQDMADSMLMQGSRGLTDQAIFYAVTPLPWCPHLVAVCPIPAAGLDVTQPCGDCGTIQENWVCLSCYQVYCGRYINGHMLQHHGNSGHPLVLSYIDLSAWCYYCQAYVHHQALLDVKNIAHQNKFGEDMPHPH
Put plainly: HDAC6 enzyme inhibitory assay (HDAC-Glo I/II Assay kit). Format: biochemical. Particulars: wells without enzyme = 100% inhibition; for inhibition at 10 µM: read-out: HDAC6 inhibitory rate (%) (10 μM). In outline:
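Full-length GST-purified HDAC6 from Sf-9 cells preincubated with compound 60 min at room temperature in Tris-HCl pH 7.5 buffer with MgCl2, KCl, NaCl, glutathione, Tween-20. Substrate-developer reaction 20 min, luminescence read; no-enzyme wells set as 100% inhibition.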

The next assay deals with tauopathy mouse model. The conditions noted are these: cited from earlier work.

Take `O=C1c2cc(-c3nnc(C(F)F)o3)ccc2CN1[C@H](c1ccccn1)[C@@H](O)c1ccccn1` [Example 1, 6-[5-(difluoromethyl)-1,3,4-oxadiazol-2-yl]-2-[(1R,2R)-2-hydroxy-1,2-di(pyridin-2-yl)ethyl]-2,3-dihydro-1H-isoindol-1-one]: in assay [1], the “relative tubulin acetylation level (acetylated tubulin relative to total tubulin)” value (shortened to “relative tubulin acetylation level”) was “increase in significant tubulin acetylation level; also recorded: increase in acetylated tubulin”. Besides, the “cognitive improvement action (novelty discrimination, relative exploration time)” value in assay [2] was “cognitive improvement action”. Besides, the inhibition at 10 µM at HDAC6 enzyme came to 101%.

For the compound `O=C1c2cc(-c3nnc(C(F)F)o3)ccc2CN1[C@H](c1ccccn1)[C@@H](O)c1ccc(F)cn1` [Example 3, 6-[5-(difluoromethyl)-1,3,4-oxadiazol-2-yl]-2-[(1R,2R)-2-(5-fluoropyridin-2-yl)-2-hydroxy-1-(pyridin-2-yl)ethyl]-2,3-dihydro-1H-isoindol-1-one], the “relative tubulin acetylation level” value in assay [1] is “increase in significant tubulin acetylation level; also recorded: increase in acetylated tubulin”. In assay [2], the “cognitive improvement action (novelty discrimination, relative exploration time)” value is “cognitive improvement action”. Also, on HDAC6 enzyme, the inhibition at 10 µM worked out at 101%.

In the case of `CN1CCc2c(c3ccccc3n2Cc2ccc(C(=O)NO)cc2)C1` [Tubastatin A], in the assay on tauopathy mouse model, the acetylation of tubulin entry is on record as “increases acetylation of tubulin” and the therapeutic effectiveness entry is on record as “shows therapeutic effectiveness”.

`O=C1c2cc(-c3nnc(C(F)F)o3)ccc2CN1[C@H](c1ccc(F)cn1)[C@@H](O)c1ccc(F)cn1` [Example 5, 2-[(1R,2R)-1,2-bis(5-fluoropyridin-2-yl)-2-hydroxyethyl]-6-[5-(difluoromethyl)-1,3,4-oxadiazol-2-yl]-2,3-dihydro-1H-isoindol-1-one]: in assay [1], the “relative tubulin acetylation level” value is on record as “increase in significant tubulin acetylation level; also recorded: increase in acetylated tubulin”. Moreover, at HDAC6 enzyme (10 µM), the “HDAC6 inhibitory rate (%) (10 μM)” value was found to be 99%.
